Literature values as cited in patent EP2479272A1, “METHOD FOR PRODUCING MONATIN” (Ajinomoto Co., Inc., priority 2010, dated 2012).

Conditions: compared with sucrose; from Patent Document 1

N[C@@H](CC(O)(Cc1c[nH]c2ccccc12)C(=O)O)C(=O)O (stereo partly shown) [Monatin, 4-(indole-3-yl-methyl)-4-hydroxy-glutamic acid]
sweetness: one thousand and several hundreds times sweeter than sucrose
